Laboratory results: paper doi:10.1101/2023.11.24.568596v1 (biorxiv, 2023)

How the values were obtained:
Conditions in all cases: binder
Wnk1 = Wnk1 (Homo sapiens, UniProt Q9H4A3)
ULK3 = target: T1, ULK3 (Homo sapiens, UniProt Q6PHR2)
T1 sequence (Q6PHR2 1-472): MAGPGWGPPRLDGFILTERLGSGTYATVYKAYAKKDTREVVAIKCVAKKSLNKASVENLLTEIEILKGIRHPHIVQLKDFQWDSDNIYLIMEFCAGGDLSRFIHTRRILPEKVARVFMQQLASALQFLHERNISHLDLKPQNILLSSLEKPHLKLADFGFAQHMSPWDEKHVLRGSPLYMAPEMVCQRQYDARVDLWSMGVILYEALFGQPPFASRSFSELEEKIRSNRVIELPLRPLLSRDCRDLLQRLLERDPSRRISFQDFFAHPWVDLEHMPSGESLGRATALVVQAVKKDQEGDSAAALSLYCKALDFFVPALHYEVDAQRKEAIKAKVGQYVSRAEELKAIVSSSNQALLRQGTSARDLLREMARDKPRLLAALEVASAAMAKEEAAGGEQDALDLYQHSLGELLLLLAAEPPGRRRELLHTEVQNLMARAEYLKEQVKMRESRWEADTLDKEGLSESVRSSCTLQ

STLK3 = STLK3 (Homo sapiens, UniProt Q9UEW8)
TLK1 = target: T2, TLK1 (Homo sapiens, UniProt Q9UKI8)
T2 sequence (Q9UKI8 1-766): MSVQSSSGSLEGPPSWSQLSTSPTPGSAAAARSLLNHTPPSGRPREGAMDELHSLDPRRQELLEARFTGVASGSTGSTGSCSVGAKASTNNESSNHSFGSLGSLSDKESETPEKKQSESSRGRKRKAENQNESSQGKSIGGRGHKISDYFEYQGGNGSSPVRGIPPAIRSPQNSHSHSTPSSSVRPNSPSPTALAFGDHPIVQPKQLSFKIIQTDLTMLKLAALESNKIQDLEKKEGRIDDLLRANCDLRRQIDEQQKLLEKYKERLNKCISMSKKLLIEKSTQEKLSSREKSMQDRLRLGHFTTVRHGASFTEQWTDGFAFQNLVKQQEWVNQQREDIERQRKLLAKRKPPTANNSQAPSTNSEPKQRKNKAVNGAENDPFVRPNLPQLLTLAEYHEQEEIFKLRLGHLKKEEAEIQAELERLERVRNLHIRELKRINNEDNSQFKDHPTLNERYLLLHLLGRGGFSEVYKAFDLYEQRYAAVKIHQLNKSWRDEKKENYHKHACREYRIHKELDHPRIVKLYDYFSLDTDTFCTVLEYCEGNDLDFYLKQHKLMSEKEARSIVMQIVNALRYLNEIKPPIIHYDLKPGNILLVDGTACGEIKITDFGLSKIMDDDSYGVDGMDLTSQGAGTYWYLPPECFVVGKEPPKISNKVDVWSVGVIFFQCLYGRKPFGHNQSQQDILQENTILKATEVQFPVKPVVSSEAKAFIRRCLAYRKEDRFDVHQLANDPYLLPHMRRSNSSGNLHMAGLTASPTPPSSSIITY

TAF1 = TAF1 (Homo sapiens, UniProt P21675)
MST4 = MST4 (Homo sapiens, UniProt Q9P289)
Chain of MST4 (Q9P289 whole entry): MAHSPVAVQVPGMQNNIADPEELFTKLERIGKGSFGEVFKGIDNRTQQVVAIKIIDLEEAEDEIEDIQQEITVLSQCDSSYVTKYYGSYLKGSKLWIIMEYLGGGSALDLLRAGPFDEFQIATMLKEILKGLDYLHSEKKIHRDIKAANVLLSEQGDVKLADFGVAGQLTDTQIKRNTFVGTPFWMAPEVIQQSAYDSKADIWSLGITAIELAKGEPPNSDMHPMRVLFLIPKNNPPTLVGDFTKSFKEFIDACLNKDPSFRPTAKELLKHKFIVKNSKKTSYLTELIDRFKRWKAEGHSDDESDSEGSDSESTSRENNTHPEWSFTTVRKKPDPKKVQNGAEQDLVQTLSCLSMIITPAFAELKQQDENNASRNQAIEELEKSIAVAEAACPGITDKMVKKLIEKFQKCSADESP

PAK1 = PAK1 (Homo sapiens, UniProt Q13153)
Chain of PAK1 (Q13153 whole entry): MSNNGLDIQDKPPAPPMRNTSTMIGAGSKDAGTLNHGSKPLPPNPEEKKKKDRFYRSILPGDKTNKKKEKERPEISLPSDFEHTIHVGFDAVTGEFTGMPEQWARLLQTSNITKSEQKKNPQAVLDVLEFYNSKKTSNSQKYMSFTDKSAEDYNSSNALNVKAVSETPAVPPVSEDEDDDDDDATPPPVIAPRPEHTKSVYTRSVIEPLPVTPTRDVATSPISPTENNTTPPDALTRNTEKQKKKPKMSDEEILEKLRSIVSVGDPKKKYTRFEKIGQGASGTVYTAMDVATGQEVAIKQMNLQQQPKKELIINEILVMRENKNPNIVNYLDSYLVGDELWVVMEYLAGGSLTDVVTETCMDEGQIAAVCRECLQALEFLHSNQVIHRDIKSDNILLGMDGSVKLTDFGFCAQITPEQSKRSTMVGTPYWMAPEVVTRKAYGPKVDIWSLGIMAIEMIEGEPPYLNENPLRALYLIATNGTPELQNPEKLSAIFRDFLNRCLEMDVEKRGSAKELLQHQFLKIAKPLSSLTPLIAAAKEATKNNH

MST2 = target: T3, MST2 (Homo sapiens, UniProt Q13188)
T3 sequence (Q13188 1-491): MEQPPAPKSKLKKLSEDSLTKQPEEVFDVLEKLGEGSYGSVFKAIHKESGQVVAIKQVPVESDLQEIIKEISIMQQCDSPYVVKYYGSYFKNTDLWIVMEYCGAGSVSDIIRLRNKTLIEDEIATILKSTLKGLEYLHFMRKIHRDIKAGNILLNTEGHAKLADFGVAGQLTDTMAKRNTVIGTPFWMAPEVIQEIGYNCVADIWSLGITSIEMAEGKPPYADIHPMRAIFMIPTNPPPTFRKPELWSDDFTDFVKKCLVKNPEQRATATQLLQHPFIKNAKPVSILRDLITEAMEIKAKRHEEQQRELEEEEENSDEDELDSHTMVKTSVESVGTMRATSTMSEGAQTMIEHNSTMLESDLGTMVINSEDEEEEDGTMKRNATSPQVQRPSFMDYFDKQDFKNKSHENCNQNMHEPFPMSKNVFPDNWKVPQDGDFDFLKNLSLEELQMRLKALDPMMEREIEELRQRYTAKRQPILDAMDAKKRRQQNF

MST1 = target: T4, MST1 (Homo sapiens, UniProt Q13043)
T4 sequence (Q13043 1-487): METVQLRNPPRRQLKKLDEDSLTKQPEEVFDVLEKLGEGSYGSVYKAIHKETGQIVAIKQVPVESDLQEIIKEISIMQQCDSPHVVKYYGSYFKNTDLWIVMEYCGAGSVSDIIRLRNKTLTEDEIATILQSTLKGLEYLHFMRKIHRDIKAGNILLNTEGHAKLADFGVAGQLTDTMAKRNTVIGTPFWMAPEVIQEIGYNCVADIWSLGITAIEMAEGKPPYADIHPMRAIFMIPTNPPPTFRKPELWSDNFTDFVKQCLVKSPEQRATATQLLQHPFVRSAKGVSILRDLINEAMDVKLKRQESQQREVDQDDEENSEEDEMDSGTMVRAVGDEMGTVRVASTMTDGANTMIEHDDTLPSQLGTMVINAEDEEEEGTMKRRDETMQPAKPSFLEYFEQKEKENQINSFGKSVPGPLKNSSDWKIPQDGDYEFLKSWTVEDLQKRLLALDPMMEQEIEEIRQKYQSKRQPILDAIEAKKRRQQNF

MST3 = MST3 (Homo sapiens, UniProt Q9Y6E0)
Chain of MST3 (Q9Y6E0 whole entry): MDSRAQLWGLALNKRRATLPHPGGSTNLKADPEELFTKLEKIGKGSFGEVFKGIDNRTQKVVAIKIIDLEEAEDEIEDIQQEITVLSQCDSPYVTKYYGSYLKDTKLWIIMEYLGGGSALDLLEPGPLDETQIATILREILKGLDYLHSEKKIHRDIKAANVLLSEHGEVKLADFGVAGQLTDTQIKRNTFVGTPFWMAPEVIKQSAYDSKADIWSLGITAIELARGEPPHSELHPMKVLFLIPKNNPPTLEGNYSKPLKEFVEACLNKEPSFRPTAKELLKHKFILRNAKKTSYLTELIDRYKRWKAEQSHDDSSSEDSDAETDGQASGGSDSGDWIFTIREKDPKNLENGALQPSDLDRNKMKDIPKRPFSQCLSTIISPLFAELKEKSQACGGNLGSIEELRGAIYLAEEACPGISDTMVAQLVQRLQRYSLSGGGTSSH

Chain of Wnk1 (Q9H4A3 whole entry): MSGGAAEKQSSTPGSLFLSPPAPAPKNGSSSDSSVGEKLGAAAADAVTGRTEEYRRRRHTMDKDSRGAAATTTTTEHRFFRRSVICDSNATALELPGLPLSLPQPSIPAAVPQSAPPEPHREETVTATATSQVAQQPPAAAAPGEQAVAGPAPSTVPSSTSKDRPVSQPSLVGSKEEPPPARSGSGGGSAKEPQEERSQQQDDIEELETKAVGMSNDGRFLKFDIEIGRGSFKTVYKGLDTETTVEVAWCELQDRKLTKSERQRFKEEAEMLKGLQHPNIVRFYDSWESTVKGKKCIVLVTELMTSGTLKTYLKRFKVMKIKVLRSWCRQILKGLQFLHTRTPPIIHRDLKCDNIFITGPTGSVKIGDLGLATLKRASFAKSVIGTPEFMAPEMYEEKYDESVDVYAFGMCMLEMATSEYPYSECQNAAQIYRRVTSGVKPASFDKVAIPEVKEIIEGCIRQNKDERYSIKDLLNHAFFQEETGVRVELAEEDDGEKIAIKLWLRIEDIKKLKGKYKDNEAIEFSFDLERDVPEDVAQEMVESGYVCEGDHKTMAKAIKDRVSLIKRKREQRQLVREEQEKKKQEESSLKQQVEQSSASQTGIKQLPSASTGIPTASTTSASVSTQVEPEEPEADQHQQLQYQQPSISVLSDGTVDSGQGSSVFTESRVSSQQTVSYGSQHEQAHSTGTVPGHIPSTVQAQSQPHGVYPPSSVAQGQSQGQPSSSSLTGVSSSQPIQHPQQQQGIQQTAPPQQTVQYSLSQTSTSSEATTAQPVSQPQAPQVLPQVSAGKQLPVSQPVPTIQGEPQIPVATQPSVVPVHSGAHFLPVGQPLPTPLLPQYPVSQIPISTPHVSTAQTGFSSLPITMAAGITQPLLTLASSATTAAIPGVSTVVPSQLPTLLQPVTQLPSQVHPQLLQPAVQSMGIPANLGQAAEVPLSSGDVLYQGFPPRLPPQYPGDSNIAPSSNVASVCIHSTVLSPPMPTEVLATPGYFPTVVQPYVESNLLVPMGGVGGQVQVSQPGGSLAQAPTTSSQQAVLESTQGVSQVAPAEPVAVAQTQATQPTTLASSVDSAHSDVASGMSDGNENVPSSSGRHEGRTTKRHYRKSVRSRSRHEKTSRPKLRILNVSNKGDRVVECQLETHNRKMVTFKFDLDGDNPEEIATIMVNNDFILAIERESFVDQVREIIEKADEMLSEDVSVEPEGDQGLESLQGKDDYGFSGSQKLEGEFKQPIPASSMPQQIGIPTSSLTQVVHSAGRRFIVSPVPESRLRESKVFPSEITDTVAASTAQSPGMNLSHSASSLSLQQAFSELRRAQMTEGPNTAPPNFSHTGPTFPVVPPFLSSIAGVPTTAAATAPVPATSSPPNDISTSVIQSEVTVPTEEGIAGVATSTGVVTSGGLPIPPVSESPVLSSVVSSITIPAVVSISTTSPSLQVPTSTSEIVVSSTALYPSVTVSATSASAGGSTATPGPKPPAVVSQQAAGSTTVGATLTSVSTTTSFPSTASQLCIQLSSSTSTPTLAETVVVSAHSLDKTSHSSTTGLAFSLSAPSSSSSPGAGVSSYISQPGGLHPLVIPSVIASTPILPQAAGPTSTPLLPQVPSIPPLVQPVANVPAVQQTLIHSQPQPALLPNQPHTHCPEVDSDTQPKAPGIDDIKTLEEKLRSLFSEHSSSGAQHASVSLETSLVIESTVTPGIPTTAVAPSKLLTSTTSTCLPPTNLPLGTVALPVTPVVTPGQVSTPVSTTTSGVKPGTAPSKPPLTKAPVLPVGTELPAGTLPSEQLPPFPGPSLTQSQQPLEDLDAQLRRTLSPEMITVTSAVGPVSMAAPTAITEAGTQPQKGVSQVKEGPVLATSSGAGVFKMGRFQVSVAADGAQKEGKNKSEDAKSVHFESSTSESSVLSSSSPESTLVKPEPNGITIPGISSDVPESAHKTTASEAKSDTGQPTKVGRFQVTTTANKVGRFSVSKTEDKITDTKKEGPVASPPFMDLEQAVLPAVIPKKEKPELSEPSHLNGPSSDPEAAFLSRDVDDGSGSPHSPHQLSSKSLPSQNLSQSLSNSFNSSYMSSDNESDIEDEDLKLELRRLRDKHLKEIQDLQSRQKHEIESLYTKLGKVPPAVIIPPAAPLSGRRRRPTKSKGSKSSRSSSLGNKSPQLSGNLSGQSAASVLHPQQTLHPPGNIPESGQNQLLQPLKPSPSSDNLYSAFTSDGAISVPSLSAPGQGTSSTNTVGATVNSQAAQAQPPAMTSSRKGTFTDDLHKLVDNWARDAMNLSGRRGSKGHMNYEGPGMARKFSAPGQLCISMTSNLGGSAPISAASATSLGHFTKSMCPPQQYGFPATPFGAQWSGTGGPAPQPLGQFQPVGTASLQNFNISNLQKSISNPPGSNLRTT

dTm MST4 (MST4) [°C] | dTm PAK1 (PAK1) [°C] | dTm MST2 (MST2) [°C] | dTm MST1 (MST1) [°C] | dTm MST3 (MST3) [°C] | Structure (SMILES) | also measured
 |  |  |  |  | CNc1ncc2cc(-c3ccc(-c4cccc(C)n4)cc3Cl)c(=O)n(CCCCN)c2n1 [compound 20, MRLW5] | ΔTm MRLW5 (20) (Wnk1): 1.7 °C; ΔTm MRLW5 (20) (ULK3): 8.6 °C; ΔTm MRLW5 (20) (STLK3): 1.8 °C; ΔTm MRLW5 (20) (TLK1): 0.6 °C; ΔTm MRLW5 (20) (TAF1): 0.0 °C
15.9 | 9.1 | 13.2 | 8.1 | 17.5 | Cc1cccc(-c2ccc(-c3cc4cnc(Nc5ccc(C)c(O)c5)nc4n(CCCCN)c3=O)c(Cl)c2)n1 [compound 32, 8-(4-Aminobutyl)-6-(2-chloro-4-(6-methylpyridin-2-yl)phenyl)-2-((3-hydroxy-4-methylphenyl)amino)pyrido[2,3-d]pyrimidin-7(8H)-one] | ΔTm 32 (Wnk1): 3.5 °C; ΔTm 32 (ULK3): 14.3 °C; ΔTm 32 (STLK3): 16.6 °C; ΔTm 32 (TLK1): -0.8 °C; ΔTm 32 (TAF1): 0.5 °C
14.8 | 9.3 | 16.0 | 8.6 | 16.9 | Cc1cccc(-c2ccc(-c3cc4cnc(Nc5ccc(F)c(CO)c5)nc4n(CCCCN)c3=O)c(Cl)c2)n1 [compound 33, 8-(4-Aminobutyl)-6-(2-chloro-4-(6-methylpyridin-2-yl)phenyl)-2-((4-fluoro-3-(hydroxymethyl)phenyl)amino)pyrido[2,3-d]pyrimidin-7(8H)-one] | 
8.3 | 4.5 | 5.4 | 3.8 | 11.0 | COc1ccc(O)c(Nc2ncc3cc(-c4ccc(-c5cccc(C)n5)cc4Cl)c(=O)n(CCCCN)c3n2)c1 [compound 34, 8-(4-Aminobutyl)-6-(2-chloro-4-(6-methylpyridin-2-yl)phenyl)-2-((2-hydroxy-5-methoxy-phenyl)amino)pyrido[2,3-d]pyrimidin-7(8H)-one] | 
9.2 | 5.0 | 7.5 | 4.6 | 11.0 | COc1cc(N2CCOCC2)ccc1Nc1ncc2cc(-c3ccc(-c4cccc(C)n4)cc3Cl)c(=O)n(CCCCN)c2n1 [compound 35, 8-(4-Aminobutyl)-6-(2-chloro-4-(6-methylpyridin-2-yl)phenyl)-2-((2-methoxy-4-morpholino-phenyl)amino)pyrido[2,3-d]pyrimidin-7(8H)-one] | 
8.1 | 5.1 | 4.6 | 2.1 | 10.6 | Cc1cccc(-c2ccc(-c3cc4cnc(NC(CO)CO)nc4n(CCCCN)c3=O)c(Cl)c2)n1 [compound 24, 8-(4-Aminobutyl)-6-(2-chloro-4-(6-methylpyridin-2-yl)phenyl)-2-((1,3-dihydroxypropan-2-yl)amino)pyrido[2,3-d]pyrimidin-7(8H)-one] | ΔTm MR24 (24) (Wnk1): 0.2 °C; ΔTm MR24 (24) (ULK3): 7.2 °C; ΔTm MR24 (24) (STLK3): 9.1 °C; ΔTm MR24 (24) (TLK1): -1.8 °C; ΔTm MR24 (24) (TAF1): -0.1 °C
 |  |  |  |  | CNc1ncc2cc(-c3ccc(-c4cccc(C)n4)cc3Cl)c(=O)n(C[C@H]3CC[C@H](N)CC3)c2n1 [compound 23, 23] | ΔTm 23 (Wnk1): 2.1 °C; ΔTm 23 (ULK3): 13.5 °C; ΔTm 23 (STLK3): 3.3 °C; ΔTm 23 (TLK1): 0.6 °C; ΔTm 23 (TAF1): -0.5 °C
6.7 | 8.8 | 7.4 | 4.0 | 13.5 | COc1cc(N2CCN(C)CC2)ccc1Nc1ncc2cc(-c3ccc(-c4cccc(C)n4)cc3Cl)c(=O)n(CCCCN)c2n1 [compound 36, 8-(4-Aminobutyl)-6-(2-chloro-4-(6-methylpyridin-2-yl)phenyl)-2-((2-methoxy-4-(4-methylpiperazin-1-yl)phenyl)amino)pyrido[2,3-d]pyrimidin-7(8H)-one] | 
9.7 | 6.8 | 7.2 | 4.9 | 12.2 | Cc1cccc(-c2ccc(-c3cc4cnc(NCCCc5ccc(N)cc5)nc4n(CCCCN)c3=O)c(Cl)c2)n1 [compound 25, 8-(4-Aminobutyl)-2-((3-(4-aminophenyl)propyl)amino)-6-(2-chloro-4-(6-methylpyridin-2-yl)phenyl)pyrido[2,3-d]pyrimidin-7(8H)-one] | ΔTm 25 (Wnk1): 2.7 °C; ΔTm 25 (ULK3): 11.1 °C; ΔTm 25 (STLK3): 13.0 °C; ΔTm 25 (TLK1): -0.9 °C; ΔTm 25 (TAF1): -0.1 °C
15.0 | 9.2 | 13.7 | 8.0 | 17.1 | Cc1cccc(-c2ccc(-c3cc4cnc(Nc5ccc(O)cc5)nc4n(CCCCN)c3=O)c(Cl)c2)n1 [compound 31, 8-(4-Aminobutyl)-6-(2-chloro-4-(6-methylpyridin-2-yl)phenyl)-2-((4-hydroxyphenyl)amino) pyrido[2,3-d]pyrimidin-7(8H)-one] | ΔTm 31 (Wnk1): 3.1 °C; ΔTm 31 (ULK3): 14.5 °C; ΔTm 31 (STLK3): 16.6 °C; ΔTm 31 (TLK1): -1.6 °C; ΔTm 31 (TAF1): -1.0 °C
 |  |  |  |  | CNc1ncc2cc(-c3ccc(-c4cccc(C)n4)cc3Cl)c(=O)n(CCC3CCNCC3)c2n1 [compound 22, 6-(2-Chloro-4-(6-methylpyridin-2-yl)phenyl)-2-(methylamino)-8-(2-(piperidin-4-yl)ethyl)pyrido[2,3-d]pyrimidin-7(8H)-one] | ΔTm 22 (Wnk1): 1.5 °C; ΔTm 22 (ULK3): 9.7 °C; ΔTm 22 (STLK3): -3.0 °C; ΔTm 22 (TLK1): 0.2 °C; ΔTm 22 (TAF1): 0.3 °C
